Values quoted from earlier work, collected in patent US20250313559A1 (Bayer Aktiengesellschaft, priority 2024, published 2025).
Entries after “also recorded” stand apart in the source; their conditions may differ.

What was measured:
[1] = system: patients with HF and LVEF 35%; conditions: EMPHASIS-HF; HFrEF; cited from earlier work
[2] = system: patients with HFpEF; conditions: TOPCAT, global trial; cited from earlier work
[3] = system: patients with HF and left ventricular ejection fraction (LVEF) 35%; conditions: RALES; HFrEF; cited from earlier work
[4] = system: patients with HF and LVEF 45%; conditions: TOPCAT; HFmrEF/HFpEF; cited from earlier work

| Compound | Risk of death and hospitalization [1] | primary composite endpoint [2] | Risk of death and hospitalization [3] | Primary endpoint (first heart failure hospitalization or cardiovascular death) [4] |
| --- | --- | --- | --- | --- |
| COC(=O)[C@@H]1CC2=CC(=O)CC[C@]2(C)[C@@]23O[C@@H]2C[C@@]2(C)[C@@H](CC[C@@]24CCC(=O)O4)[C@H]13 [eplerenone] | decrease the risk of death and hospitalization | – | – | – |
| CC(=O)S[C@@H]1CC2=CC(=O)CC[C@]2(C)[C@H]2CC[C@@]3(C)[C@@H](CC[C@@]34CCC(=O)O4)[C@H]12 [spironolactone] | – | did not reduce the primary endpoint; also recorded: did not demonstrate benefit | decrease the risk of death and hospitalization | did not reduce the primary endpoint; also recorded: did not improve the primary outcome |
